Key:
Aβ42 [1] = assay: Method 1: Aβ42 sandwich ELISA in supernatant of SKNBE2 cells carrying APP 695-wild type (Tables 7a, 7b); assay type: cell-based
Procedure, shortened: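 SKNBE2 cells expressing wild-type APP695 were exposed to compound for 18 hours. Secreted Aβ42 was quantified by sandwich ELISA with C-terminal-selective capture, biotinylated 3D6 detection and TMB read-out at 450 nm. IC50 came from 4-parameter fits of % inhibition or % of untreated control; WST-1 monitored toxicity.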

Aβ42 [2] = assay: In vivo efficacy: Aβ42 lowering in brain after single oral dose (Table 8); details: mouse brain soluble fraction, ELISA, compared to untreated animals
From the text: (§1) To determine whether acute administration of an Aβ42 lowering agent would reduce Aβ42 levels in vivo, non-transgenic rodents, e.g. mice or rats were used. Alternatively, two to three month old Tg2576 mice expressing APP695 containing the “Swedish” variant can be used or a transgenic mouse model developed by Dr. Fred Van Leuven (K.U.Leuven, Belgium) and co-workers, with neuron-specific expression of a clinical mutant of the human amyloid precursor protein [V7171] (Moechars et al., 1999 J. Biol. Chem. 274, 6483). Young transgenic mice have high levels of Aβ in the brain but no detectable Aβ deposition. At approximately 6-8 months of age, the transgenic mice start to display spontaneous, progressive accumulation of β-amyloid (Aβ) in the brain, eventually resulting in amyloid plaques within the subiculum, hippocampus and cortex. Animals treated with the Aβ42 lowering agent were examined and compared to those untreated or treated with vehicle and brain levels of soluble Aβ42 and total Aβ would be quantitated by standard techniques, for example, using ELISA. Treatment periods varied from hours to days and were adjusted based on the results of the Aβ42 lowering once a time course of onset of effect could be established.
(§2) A typical protocol for measuring Aβ42 lowering in vivo is shown but it is only one of many variations that could be used to optimize the levels of detectable Aβ. For example, Aβ42 lowering compounds were formulated in 20% of Captisol® (a sulfobutyl ether of β-cyclodextrin) in water or 20% hydroxypropyl β cyclodextrin. The Aβ42 lowering agents were administered as a single oral dose or by any acceptable route of administration to overnight fasted animals. After four hours, the animals were sacrificed and Aβ42 levels were analysed.
(§3) Blood was collected by decapitation and exsanguinations in EDTA-treated collection tubes. Blood was centrifuged at 1900 g for 10 min at 4° C. and the plasma recovered and flash frozen for later analysis. The brain was removed from the cranium and hindbrain. The cerebellum was removed and the left and right hemisphere were separated. The left hemisphere was stored at −18° C. for quantitative analysis of test compound levels. The right hemisphere was rinsed with phosphate-buffered saline (PBS) buffer and immediately frozen on dry ice and stored at −80° C. until homogenization for biochemical assays.
(§4) Mouse brains were resuspended in 10 volumes of 0.4% DEA (diethylamine)/50 mM NaCl pH 10 (for non-transgenic animals) or 0.1% 3-[(3-cholamidopropyl)-dimethyl-ammonio]-1-propanesulfonate (CHAPS) in tris buffered saline (TBS) (for transgenic animals) containing protease inhibitors (Roche-11873580001 or 04693159000 per gram of tissue, e.g. for 0.158 g brain, add 1.58 ml of 0.4% DEA. All samples were sonicated for 30 sec on ice at 20% power output (pulse mode). Homogenates were centrifuged at 221.300×g for 50 min. The resulting high speed supernatants were then transferred to fresh tubes and were optionally further purified before the next step. A portion of the supernatant was neutralized with 10% 0.5 M Tris-HCl and this was used to quantify Aβtotal.
(§5) The obtained supernatants were purified with Water Oasis HLB reverse phase columns (Waters Corp., Milford, Mass.) to remove non-specific immunoreactive material from the brain lysates prior subsequent Aβ detection. Using a vacuum manifold, all solutions were passed through the columns at a rate of approximately 1 ml per minute, so the vacuum pressure was adjusted accordingly throughout the procedure. Columns were preconditioned with 1 ml of 100% MeOH, before equilibration with 1 ml of H2O. Non-neutralized brain lysates were loaded onto the columns. The loaded samples were then washed twice with the first wash performed with 1 ml of 5% MeOH, and the second wash with 1 ml of 30% MeOH. Finally, the Aβ was eluted from the columns and into 100×30 mm glass tubes, with a solution of 90% MeOH with 2% NH4OH. […]

Aβtotal = assay: In vivo efficacy: Aβtotal lowering in brain after single oral dose (Table 8); details: mouse brain soluble fraction, ELISA, compared to untreated animals
From the text: as §1, §2, §3, §4, §5

[3] = Homo sapiens, SKNBE2, Table 7b, averaged IC50, non-linear regression of percentage of control vs log concentration, 4-parameter equation
[4] = Homo sapiens, Table 7a, SKNBE2 cells, compounds 18 h, XLfit 4-parameter fit of percent inhibition, top/bottom fixed to 100/0, hill slope 1
[5] = Table 7b, averaged IC50, non-linear regression of percentage of control vs log concentration, 4-parameter equation

Cc1ncoc1-c1ccc(Nc2cccc3c2nc(-c2ccc(F)cc2)n3C)nc1 [Compound 10]
IC50 (Aβ42 [1]; [3]): 0.355 µM | IC50 (Aβ42 [1]; [4]): 0.358 µM | Aβ42 (% Ctrl)_Mean (Aβ42 [2]): 106 % Ctrl | Aβtotal (% Ctrl)_Mean (Aβtotal): 109 % Ctrl

COc1cc(Nc2cccc3c2nc(CCC(F)(F)F)n3C)ccc1-c1ocnc1C [Compound 11]
IC50 (Aβ42 [1]; [3]): 0.071 µM | IC50 (Aβ42 [1]; [4]): 0.072 µM | Aβ42 (% Ctrl)_Mean (Aβ42 [2]): 91 % Ctrl | Aβtotal (% Ctrl)_Mean (Aβtotal): 99 % Ctrl

COc1cc(Nc2cccc3c2nc(-c2ccc(F)cc2)n3C)ccc1-c1ocnc1C [Compound 12]
IC50 (Aβ42 [1]; [3]): 0.021 µM | IC50 (Aβ42 [1]; [4]): 0.023 µM | Aβ42 (% Ctrl)_Mean (Aβ42 [2]): 56 % Ctrl | Aβtotal (% Ctrl)_Mean (Aβtotal): 101 % Ctrl

COc1cc(Nc2cccc3c2nc(-c2ccc(F)cc2)n3C)ccc1-c1cnc(C)o1 [Compound 16]
IC50 (Aβ42 [1]; [3]): 0.009 µM | IC50 (Aβ42 [1]; [4]): 0.011 µM | Aβ42 (% Ctrl)_Mean (Aβ42 [2]): 58 % Ctrl | Aβtotal (% Ctrl)_Mean (Aβtotal): 95 % Ctrl

Cc1ncc(-c2ccc(Nc3nccc4c3nc(-c3ccc(F)cc3)n4C)cc2F)o1 [Compound 17]
IC50 (Aβ42 [1]; [3]): > 10 µM | Aβ42 (% Ctrl)_Mean (Aβ42 [2]): 106 % Ctrl | Aβtotal (% Ctrl)_Mean (Aβtotal): 109 % Ctrl

Cc1ncc(-c2ccc(Nc3cccc4c3nc(-c3ccc(F)cc3)n4C(C)C)cn2)o1 [Compound 18]
IC50 (Aβ42 [1]; [3]): 0.035 µM | Aβ42 (% Ctrl)_Mean (Aβ42 [2]): 54 % Ctrl | Aβtotal (% Ctrl)_Mean (Aβtotal): 94 % Ctrl

COc1cccc(-c2nc3c(Nc4ccc(-c5cnc(C)o5)nc4)cc(F)cc3n2C)c1 [Compound 105]
IC50 (Aβ42 [1]; [5]): 0.007 µM | Aβ42 (% Ctrl)_Mean (Aβ42 [2]): 104 % Ctrl | Aβtotal (% Ctrl)_Mean (Aβtotal): 96 % Ctrl

COc1cc(Nc2nc(C(F)(F)F)cn3cc(C)nc23)ccc1-c1cnc(C)o1 [Compound 170]
IC50 (Aβ42 [1]; [5]): 3.55 µM | Aβ42 (% Ctrl)_Mean (Aβ42 [2]): 99 % Ctrl | Aβtotal (% Ctrl)_Mean (Aβtotal): 99 % Ctrl

COc1cc(Nc2cncc3c2nc(-c2ccc(F)cc2)n3C)ccc1-c1cnc(C)o1 [Compound 186]
IC50 (Aβ42 [1]; [5]): 0.162 µM | Aβ42 (% Ctrl)_Mean (Aβ42 [2]): 52 % Ctrl | Aβtotal (% Ctrl)_Mean (Aβtotal): 82 % Ctrl

COc1cc(Nc2cc(C(F)(F)F)nn3cc(C)nc23)ccc1-c1cnc(C)o1 [Compound 195]
IC50 (Aβ42 [1]; [5]): 0.195 µM | Aβ42 (% Ctrl)_Mean (Aβ42 [2]): 89 % Ctrl | Aβtotal (% Ctrl)_Mean (Aβtotal): 99 % Ctrl
